Measurements from patent publication US20250353853A1, “FLAVIVIRUS INHIBITORS” (IRBM S.P.A., priority 2022, published 2025).
Read-outs that look alike come from different tables or passages of the source.

Assays:
[1] = target: West Nile Virus (WNV) NS2B-NS3 protease (West Nile virus (WNV), UniProt P06935); test: WNV Protease Inhibition Assay; type: biochemical
Text: WNV Protease Inhibition Assay

[2] = tested on: ZIKV replicon in Vero cells; test: ZIKV Replication Inhibition Assay (replicon, NanoLuc); conditions: Zika virus, Vero, 72 h, read-out: Zika Replicon EC50
[3] = 2 nM protease, 10 μM pERTKR-AMC substrate, read-out: WNV Protease IC50

Sequence of West Nile Virus (WNV) NS2B-NS3 protease (P06935 1502-1679 limits assumed): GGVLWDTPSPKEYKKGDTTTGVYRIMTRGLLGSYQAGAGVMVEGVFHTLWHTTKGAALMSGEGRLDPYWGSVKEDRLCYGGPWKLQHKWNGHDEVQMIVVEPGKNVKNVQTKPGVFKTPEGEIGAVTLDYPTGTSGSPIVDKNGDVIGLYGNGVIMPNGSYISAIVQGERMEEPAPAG
Sequence of West Nile Virus (WNV) NS2B-NS3 protease (P06935 1371-1501 partner limits assumed): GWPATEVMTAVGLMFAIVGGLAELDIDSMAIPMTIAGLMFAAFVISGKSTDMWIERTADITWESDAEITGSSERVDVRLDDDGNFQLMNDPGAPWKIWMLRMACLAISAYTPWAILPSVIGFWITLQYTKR

Row | SMILES | IC50 [1] | EC50 [2] | IC50 [1, 3]
1 | O=C([N-]c1c[n+](Cc2ccc(-c3ccncc3)cc2)no1)Nc1cccc(C(F)(F)F)c1 [Example 39, (3-(4-(pyridin-4-yl)benzyl)-1,2,3-oxadiazol-3-ium-5-yl)((3-(trifluoromethyl)phenyl)carbamoyl)amide] | 100 to 1000 nM | 100 to 1000 nM | –
2 | C[C@H](c1ccc(Br)cc1)[n+]1cc([N-]C(=O)Nc2cncc(C(F)(F)F)c2)on1 [Example 73, (R)-(3-(1-(4-bromophenyl)ethyl)-1,2,3-oxadiazol-3-ium-5-yl)((5-(trifluoromethyl)pyridin-3-yl)carbamoyl)amide] | 1000 to 20000 nM | 1000 to 20000 nM | –
3 | O=C([N-]c1c[n+](Cc2ccc(-c3cncnc3Cl)cn2)no1)Nc1cccc(C(F)(F)F)c1 [Example 179, (3-((5-(4-chloropyrimidin-5-yl)pyridin-2-yl)methyl)-1,2,3-oxadiazol-3-ium-5-yl)((3-(trifluoromethyl)phenyl)carbamoyl)amide] | – | 1000 to 20000 nM | < 100 nM
4 | Cc1ncnc(C)c1-c1ccc(C[n+]2cc([N-]C(=O)Nc3ccnc(C(F)(F)F)c3)on2)cc1 [Example 185, (3-(4-(4,6-dimethylpyrimidin-5-yl)benzyl)-1,2,3-oxadiazol-3-ium-5-yl)((2-(trifluoromethyl)pyridin-4-yl)carbamoyl)amide] | – | < 100 nM | < 100 nM
5 | Cc1noc(C)c1-c1ccc(C[n+]2cc([N-]C(=O)Nc3cncc(C(F)(F)F)c3)on2)nc1 [Example 126, (3-((5-(3,5-dimethylisoxazol-4-yl)pyridin-2-yl)methyl)-1,2,3-oxadiazol-3-ium-5-yl)((5-(trifluoromethyl)pyridin-3-yl)carbamoyl)amide] | – | < 100 nM | < 100 nM
6 | Cc1noc(C)c1-c1ccc(C[n+]2cc([N-]C(=O)Nc3ccnc(C(F)(F)F)c3)on2)nc1 [Example 152, (3-((5-(3,5-dimethylisoxazol-4-yl)pyridin-2-yl)methyl)-1,2,3-oxadiazol-3-ium-5-yl)((2-(trifluoromethyl)pyridin-4-yl)carbamoyl)amide] | – | < 100 nM | < 100 nM
7 | O=C([N-]c1c[n+]([C@@H]2CCC[C@H]2c2ccccc2)no1)Nc1cccc(C(F)(F)F)c1 [Example 59, (3-((1R,2S)-2-phenylcyclopentyl)-1,2,3-oxadiazol-3-ium-5-yl)((3-(trifluoromethyl)phenyl)carbamoyl)amide] | 1000 to 20000 nM | 100 to 1000 nM | –
8 | O=C([N-]c1c[n+](Cc2ccc(-c3cnccn3)cc2)no1)Nc1cccc(C(F)(F)F)c1 [Example 42, (3-(4-(pyrazin-2-yl)benzyl)-1,2,3-oxadiazol-3-ium-5-yl)((3-(trifluoromethyl)phenyl)carbamoyl)amide] | 100 to 1000 nM | 100 to 1000 nM | –
9 | Cc1noc(C)c1-c1ccc(C[n+]2cc([N-]C(=O)Nc3ccnc(C(F)(F)F)c3)on2)cc1 [Example 186, (3-(4-(3,5-dimethylisoxazol-4-yl)benzyl)-1,2,3-oxadiazol-3-ium-5-yl)((2-(trifluoromethyl)pyridin-4-yl)carbamoyl)amide] | – | < 100 nM | < 100 nM
10 | Cc1noc(C)c1-c1ccc(C[n+]2cc([N-]C(=O)Nc3cncc(C4CC4)c3)on2)nc1 [Example 146, ((5-cyclopropylpyridin-3-yl)carbamoyl)(3-((5-(3,5-dimethylisoxazol-4-yl)pyridin-2-yl)methyl)-1,2,3-oxadiazol-3-ium-5-yl)amide] | 100 to 1000 nM | 100 to 1000 nM | –
11 | Cc1noc(C)c1-c1ccc(C[n+]2cc([N-]C(=O)Nc3cc(F)cc(C(F)(F)F)c3)on2)nc1 [Example 153, (3-((5-(3,5-dimethylisoxazol-4-yl)pyridin-2-yl)methyl)-1,2,3-oxadiazol-3-ium-5-yl)((3-fluoro-5-(trifluoromethyl)phenyl)carbamoyl)amide] | 100 to 1000 nM | < 100 nM | –
12 | C[C@H](c1ccc(-c2cncnc2)cc1)[n+]1cc([N-]C(=O)Nc2cccc(C(F)(F)F)c2)on1 [Example 72, (R)-(3-(1-(4-(pyrimidin-5-yl)phenyl)ethyl)-1,2,3-oxadiazol-3-ium-5-yl)((3-(trifluoromethyl)phenyl)carbamoyl)amide] | 100 to 1000 nM | 100 to 1000 nM | –
13 | Cc1cc(NC(=O)[N-]c2c[n+](Cc3ccc(-c4c(C)noc4C)cn3)no2)cc(C(F)(F)F)c1 [Example 156, (3-((5-(3,5-dimethylisoxazol-4-yl)pyridin-2-yl)methyl)-1,2,3-oxadiazol-3-ium-5-yl)((3-methyl-5-(trifluoromethyl)phenyl)carbamoyl)amide] | 1000 to 20000 nM | 100 to 1000 nM | –
14 | N#Cc1ncncc1-c1ccc(C[n+]2cc([N-]C(=O)Nc3cncc(C(F)(F)F)c3)on2)nc1 [Example 144, (3-((5-(4-cyanopyrimidin-5-yl)pyridin-2-yl)methyl)-1,2,3-oxadiazol-3-ium-5-yl)((5-(trifluoromethyl)pyridin-3-yl)carbamoyl)amide] | – | 1000 to 20000 nM | < 100 nM
15 | O=C([N-]c1c[n+](Cc2ccc(-c3ccncc3)cc2)no1)Nc1cncc(C(F)(F)F)c1 [Example 67, (3-(4-(pyridin-4-yl)benzyl)-1,2,3-oxadiazol-3-ium-5-yl)((5-(trifluoromethyl)pyridin-3-yl)carbamoyl)amide] | 100 to 1000 nM | 100 to 1000 nM | –
16 | COc1ncnc(C)c1-c1ccc(C[n+]2cc([N-]C(=O)Nc3cncc(C(F)(F)F)c3)on2)nc1 [Example 136, (3-((5-(4-methoxy-6-methylpyrimidin-5-yl)pyridin-2-yl)methyl)-1,2,3-oxadiazol-3-ium-5-yl)((5-(trifluoromethyl)pyridin-3-yl)carbamoyl)amide] | 100 to 1000 nM | 100 to 1000 nM | –
